Laboratory results: publication PMC5807063 (Science (New York, N.Y.), 2017)

Experiments:
[1] = target: T1, purified HNE (human neutrophil elastase) (Homo sapiens, UniProt P08246); experiment: Inhibition of purified human neutrophil elastase
T1 sequence (P08246 30-267): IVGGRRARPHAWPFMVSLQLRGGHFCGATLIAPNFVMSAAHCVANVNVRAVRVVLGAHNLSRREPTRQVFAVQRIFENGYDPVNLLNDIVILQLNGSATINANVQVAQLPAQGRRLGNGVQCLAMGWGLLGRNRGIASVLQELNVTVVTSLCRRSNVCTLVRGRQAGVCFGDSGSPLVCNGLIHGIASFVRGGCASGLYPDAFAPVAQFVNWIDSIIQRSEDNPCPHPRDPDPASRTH

HNE in CF patient sputum = target: T2, HNE in CF patient sputum (Homo sapiens, UniProt P08246); experiment: HNE inhibition in CF patient sputum; conditions: sputum samples of CF patients
T2 sequence (P08246 30-267): T1 sequence (P08246 30-267)

## BAY 85-8501 [compound 54]
[1]
  HNE inhibitory activity (in words): low IC50 values
HNE in CF patient sputum
  inhibitory activity in CF patient sputum (in words): potencies diminished
